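Growth conditions: 96-well plates. Treatment: test compound, 48 hours, 5 concentrations. Analysis: linear interpolation between bracketing concentrations; unreached endpoints set to highest concentration. Abbreviation: GI50, concentration required for 50% inhibition of growth.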 Active and inactive are the calls of the source. No stated cut-off is given here; in the data, active = GI50 up to about 1.1 µM and inactive = higher.
Columns and labels:
Test in all cases: NCI tumour cell line growth inhibition, 48 h
[1] = tested on: 786-0
[2] = tested on: A498
[3] = tested on: A549
[4] = tested on: ACHN
[5] = tested on: BT-549
[6] = tested on: CAKI-1
[7] = tested on: CCRF-CEM
[8] = tested on: COLO 205
[9] = tested on: DU-145
[10] = tested on: EKVX
[11] = tested on: HCC 2998
[12] = tested on: HCT-116
[13] = tested on: HCT-15
[14] = tested on: HL-60
[15] = tested on: HOP-62
[16] = tested on: HT-29
[17] = tested on: Hs-578T
[18] = tested on: IGROV-1
[19] = tested on: K562
[20] = tested on: KM12
[21] = tested on: LOX IMVI
[22] = tested on: M14
[23] = tested on: MCF7
[24] = tested on: MDA-MB-231
[25] = tested on: MDA-MB-435
[26] = tested on: MDA-N
[27] = tested on: MOLT-4
[28] = tested on: Malme-3M
[29] = tested on: NCI-H226
[30] = tested on: NCI-H23
[31] = tested on: NCI-H460
[32] = tested on: NCI-H522
[33] = tested on: NCI/ADR-RES
[34] = tested on: OVCAR-3
[35] = tested on: OVCAR-4
[36] = tested on: OVCAR-5
[37] = tested on: OVCAR-8
[38] = tested on: PC-3
[39] = tested on: RPMI-8226
[40] = tested on: RXF 393
[41] = tested on: SF-268
[42] = tested on: SF-295
[43] = tested on: SF-539
[44] = tested on: SK-MEL-28
[45] = tested on: SK-MEL-2
[46] = tested on: SK-OV-3
[47] = tested on: SN12C
[48] = tested on: SNB-19
[49] = tested on: SNB-75
[50] = tested on: SW-620
[51] = tested on: T47D
[52] = tested on: TK-10
[53] = tested on: U-251
[54] = tested on: UACC-257
[55] = tested on: UACC-62
[56] = tested on: HOP-92
[57] = tested on: SK-MEL-5
[58] = tested on: UO-31

## CCOC(=O)/C(C(=O)Nc1ccc(Cl)cc1)=C(/N)N1CCCC1
[1]
  GI50: > 100 µM (inactive)
[2]
  GI50: 64.4 µM (inactive)
[3]
  GI50: > 100 µM (inactive)
[4]
  GI50: 45.6 µM (inactive)
[5]
  GI50: > 100 µM (inactive)
[6]
  GI50: > 100 µM (inactive)
[7]
  GI50: > 100 µM (inactive)
[8]
  GI50: > 100 µM (inactive)
[9]
  GI50: > 100 µM (inactive)
[10]
  GI50: > 100 µM (inactive)
[11]
  GI50: > 100 µM (inactive)
[12]
  GI50: 94 µM (inactive)
[13]
  GI50: > 100 µM
[14]
  GI50: > 100 µM (inactive)
[15]
  GI50: > 100 µM (inactive)
[16]
  GI50: > 100 µM (inactive)
[17]
  GI50: > 100 µM (inactive)
[18]
  GI50: 54.2 µM (inactive)
[19]
  GI50: 66.7 µM (inactive)
[20]
  GI50: > 100 µM (inactive)
[21]
  GI50: > 100 µM (inactive)
[22]
  GI50: > 100 µM (inactive)
[23]
  GI50: > 100 µM (inactive)
[24]
  GI50: > 100 µM (inactive)
[25]
  GI50: > 100 µM (inactive)
[26]
  GI50: > 100 µM (inactive)
[27]
  GI50: 71.6 µM (inactive)
[28]
  GI50: > 100 µM (inactive)
[29]
  GI50: > 100 µM (inactive)
[30]
  GI50: > 100 µM (inactive)
[31]
  GI50: > 100 µM (inactive)
[32]
  GI50: > 100 µM (inactive)
[33]
  GI50: > 100 µM (inactive)
[34]
  GI50: > 100 µM (inactive)
[35]
  GI50: 69.3 µM (inactive)
[36]
  GI50: > 100 µM (inactive)
[37]
  GI50: > 100 µM (inactive)
[38]
  GI50: > 100 µM (inactive)
[39]
  GI50: 97.9 µM (inactive)
[40]
  GI50: > 100 µM (inactive)
[41]
  GI50: > 100 µM (inactive)
[42]
  GI50: > 100 µM (inactive)
[43]
  GI50: > 100 µM (inactive)
[44]
  GI50: > 100 µM (inactive)
[45]
  GI50: 49.3 µM (inactive)
[46]
  GI50: > 100 µM (inactive)
[47]
  GI50: > 100 µM (inactive)
[48]
  GI50: > 100 µM (inactive)
[49]
  GI50: > 100 µM (inactive)
[50]
  GI50: > 100 µM (inactive)
[51]
  GI50: > 100 µM (inactive)
[52]
  GI50: > 100 µM (inactive)
[53]
  GI50: > 100 µM (inactive)
[54]
  GI50: > 100 µM (inactive)
[55]
  GI50: 42 µM (inactive)

## Nc1nc(N)c2ncn(-c3ccc(Cl)c(Cl)c3)c2n1
[1]
  GI50: 14.1 µM (inactive)
[2]
  GI50: 13.3 µM (inactive)
[3]
  GI50: 30.8 µM (inactive)
[4]
  GI50: 42.2 µM (inactive)
[5]
  GI50: 21.9 µM (inactive)
[6]
  GI50: 16.9 µM (inactive)
[7]
  GI50: 3.71 µM (inactive)
[8]
  GI50: 14.9 µM (inactive)
[9]
  GI50: 18.5 µM (inactive)
[10]
  GI50: 25.5 µM (inactive)
[11]
  GI50: 27.4 µM (inactive)
[12]
  GI50: 16.1 µM (inactive)
[13]
  GI50: 26 µM
[15]
  GI50: 29.6 µM (inactive)
[56]
  GI50: 52.7 µM (inactive)
[16]
  GI50: 22.2 µM (inactive)
[17]
  GI50: 15 µM (inactive)
[18]
  GI50: 16.2 µM (inactive)
[20]
  GI50: 25.4 µM (inactive)
[22]
  GI50: 42.7 µM (inactive)
[23]
  GI50: 40.1 µM (inactive)
[24]
  GI50: 23.1 µM (inactive)
[25]
  GI50: 33.7 µM (inactive)
[26]
  GI50: 30.9 µM (inactive)
[27]
  GI50: 12.2 µM (inactive)
[28]
  GI50: 17.9 µM (inactive)
[29]
  GI50: 35.2 µM (inactive)
[30]
  GI50: 15.9 µM (inactive)
[32]
  GI50: 28.4 µM (inactive)
[33]
  GI50: 37.7 µM (inactive)
[34]
  GI50: 14.5 µM (inactive)
[35]
  GI50: 33.3 µM (inactive)
[36]
  GI50: 42.7 µM (inactive)
[37]
  GI50: 24.5 µM (inactive)
[38]
  GI50: 24.1 µM (inactive)
[39]
  GI50: 22.4 µM (inactive)
[40]
  GI50: 12.7 µM (inactive)
[41]
  GI50: 31.7 µM (inactive)
[42]
  GI50: 28.1 µM (inactive)
[43]
  GI50: 21 µM (inactive)
[44]
  GI50: 60.5 µM (inactive)
[45]
  GI50: 12.4 µM (inactive)
[57]
  GI50: 31.2 µM (inactive)
[46]
  GI50: 24.9 µM (inactive)
[47]
  GI50: 15.8 µM (inactive)
[48]
  GI50: 57 µM (inactive)
[49]
  GI50: < 0.01 µM (active)
[50]
  GI50: 42.4 µM (inactive)
[51]
  GI50: 42.1 µM (inactive)
[52]
  GI50: 16.7 µM (inactive)
[53]
  GI50: 25.9 µM (inactive)
[54]
  GI50: 27.4 µM (inactive)
[55]
  GI50: 10.1 µM (inactive)
[58]
  GI50: 18.5 µM (inactive)

## Clc1ccc(OCc2nnc(CCCCCCCCc3nnc(COc4ccc(Cl)cc4Cl)n3Nc3ccccc3)n2Nc2ccccc2)c(Cl)c1
[1]
  GI50: 15.2 µM (inactive)
[2]
  GI50: 21.4 µM (inactive)
[3]
  GI50: 8.77 µM (inactive)
[4]
  GI50: 2.44 µM (inactive)
[5]
  GI50: 17.9 µM (inactive)
[6]
  GI50: 8.73 µM (inactive)
[8]
  GI50: 1.5 µM (inactive)
[9]
  GI50: 18.6 µM (inactive)
[10]
  GI50: 19 µM (inactive)
[11]
  GI50: 7.21 µM (inactive)
[12]
  GI50: 11.4 µM (inactive)
[13]
  GI50: 10.9 µM
[15]
  GI50: 3.02 µM (inactive)
[56]
  GI50: 17.4 µM (inactive)
[16]
  GI50: 13.8 µM (inactive)
[17]
  GI50: 15.8 µM (inactive)
[18]
  GI50: 13 µM (inactive)
[20]
  GI50: 10.7 µM (inactive)
[21]
  GI50: 19 µM (inactive)
[22]
  GI50: 11.3 µM (inactive)
[23]
  GI50: 7.06 µM (inactive)
[24]
  GI50: 8.41 µM (inactive)
[25]
  GI50: 5.97 µM (inactive)
[26]
  GI50: 9.93 µM (inactive)
[27]
  GI50: 22.7 µM (inactive)
[28]
  GI50: 19.5 µM (inactive)
[29]
  GI50: 9.51 µM (inactive)
[30]
  GI50: 15.1 µM (inactive)
[31]
  GI50: 4.15 µM (inactive)
[32]
  GI50: 8.75 µM (inactive)
[33]
  GI50: 11.9 µM (inactive)
[34]
  GI50: 12 µM (inactive)
[35]
  GI50: 8.51 µM (inactive)
[36]
  GI50: 9.23 µM (inactive)
[37]
  GI50: 17.4 µM (inactive)
[38]
  GI50: 3.07 µM (inactive)
[39]
  GI50: 2.34 µM (inactive)
[40]
  GI50: 16.3 µM (inactive)
[41]
  GI50: 14.2 µM (inactive)
[42]
  GI50: 1.38 µM (inactive)
[43]
  GI50: 11.4 µM (inactive)
[44]
  GI50: 5.46 µM (inactive)
[45]
  GI50: 8.04 µM (inactive)
[57]
  GI50: 2.23 µM (inactive)
[46]
  GI50: 11.5 µM (inactive)
[47]
  GI50: 18.4 µM (inactive)
[48]
  GI50: 17.7 µM (inactive)
[49]
  GI50: 23 µM (inactive)
[50]
  GI50: 12.7 µM (inactive)
[51]
  GI50: 6.53 µM (inactive)
[52]
  GI50: 16.8 µM (inactive)
[53]
  GI50: 13.1 µM (inactive)
[54]
  GI50: 10.8 µM (inactive)
[55]
  GI50: 1.47 µM (inactive)
[58]
  GI50: 11.8 µM (inactive)

— ChEMBL document CHEMBL1201862, “PubChem BioAssay data set” (2004)
